“And” between values parts separate entries of the source, which are not always exact repeats. Equal entries are not always repeated. ± gives the expanded uncertainty stated by the source.
Conditions: Liquid; Temperature-Programmed Gas Chromatography

SMILES | Normal boiling temperature
CCOP(=O)(OCC)OCC [ethyl phosphate] | 215.89 ± 22 °C and 216.34 ± 22 °C
CCCC(C)OP(=O)(OC(C)CCC)OC(C)CCC (stereo not drawn) [tri-sec-amyl phosphate] | 282.02 ± 28 °C and 282.74 ± 28 °C
CCC(C)OP(=O)(OC(C)CC)OC(C)CC (stereo not drawn) [tri-sec-butyl phosphate] | 260.80 ± 26 °C and 261.06 ± 26 °C
CCCCCCOP(=O)(OCCCCCC)OCCCCCC [trihexyl phosphate] | 366.12 ± 37 °C and 365.02 ± 36 °C
CC(C)COP(=O)(OCC(C)C)OCC(C)C [triisobutyl phosphate] | 264.67 ± 26 °C and 265.70 ± 27 °C
CC(C)CCOP(=O)(OCCC(C)C)OCCC(C)C [triisopentyl phosphate] | 302.29 ± 30 °C and 302.37 ± 30 °C
COP(=O)(OC)OC [trimethyl orthophosphate] | 195.06 ± 20 °C and 194.97 ± 20 °C
CCCCCOP(=O)(OCCCCC)OCCCCC [tripentyl phosphate] | 323.21 ± 32 °C and 326.62 ± 33 °C

— the NIST ThermoML archive (doi:10.1016/j.tca.2010.07.032)
